Reference: patent US8883737B2, “Methods of treating cancer” (Endocyte, Inc., priority 2010, dated 2014)
Values joined by “and” are separate entries in the source; they are usually repeats but may differ in a detail not shown here. Equal entries are not always repeated. Where two headings read alike, the source gives them in different places.

Experiments:
[1] = tested on: KB tumors; assay: In vivo antitumor experiments, s.c. KB tumors; set-up: species or system nu/nu mice
Description: (§1) Four to six week-old female nu/nu mice (Charles River, Wilmington, Mass.) or six to seven week-old female Balb/c mice (Harlan Sprague Dawley, Inc., Indianapolis, Ind.) or four to six week-old female DBA mice (Harlan Sprague Dawley, Inc., Indianapolis, Ind.) were maintained on a standard 12 h light-dark cycle and fed ad libitum with folate-deficient chow (Harlan diet #TD00434, Harlan Teklad, Madison, Wis.) for the duration of the experiment. FR-positive human nasopharyngeal KB cells, human ovarian IGR-OV1 cells, human ovarian OV90 cells and syngeneic mouse lymphocytic leukemia L1210 cells were grown continuously as a monolayer, using folate-free RPMI medium (FFRPMI) containing 10% heat-inactivated fetal calf serum (HIFCS) at 37° C. in a 5% CO2/95% air-humidified atmosphere with no antibiotics. Syngeneic FR-positive Madison 109 (M109) lung carcinoma cells were generated from M109 tumors and cultured for a few days in FFRPMI containing 10% HIFCS for a few days before implantation in mice. KB cells (1×10^6 per nu/nu mouse), M109 cells (1×10^6 per Balb/c mouse), IGR-OV1 cells (4×10^6 per nu/nu mouse) or OV90 cells (1×10^6 per nu/nu mouse) or L1210 cells (2×10^5 per DBA mouse) in 100 μL were injected in the subcutis of the dorsal medial area. Mice were divided into groups of five, and test articles were freshly prepared and injected through the lateral tail vein under sterile conditions in a volume of 200 μL of phosphate-buffered saline (PBS). Intravenous (i.v.) treatments were typically initiated when the tumors were approximately 100-200 mm^3 in volume. The mice in the control groups received no treatment. Growth of each s.c. tumor was followed by measuring the tumor three times per week during treatment and twice per week thereafter until a volume of 1500 mm^3 was reached. Tumors were measured in two perpendicular directions using Vernier calipers, and their volumes were calculated as 0.5×L×W^2, where L=measurement of longest axis in mm and W=measurement of axis perpendicular to L in mm. As a general measure of toxicity, changes in body weights were determined on the same schedule as tumor volume measurements. Survival of animals was monitored daily. Animals that were moribund (or unable to reach food or water) were euthanized by CO2 asphyxiation. All in vivo studies were performed in accordance with the American Accreditation Association of Laboratory Animal Care guidelines.
(§2) For individual tumors, a partial response (PR) was defined as volume regression >50% but with measurable tumor (>2 mm^3) remaining at all times. Complete response (CR) was defined as a disappearance of measurable tumor mass (<2 mm^3) at some point until the end of the study. A cure was defined as a CR without tumor re-growth within the study time frame.

[2] = tested on: KB tumor cells; assay: Cell growth inhibition (3H-thymidine), KB tumor cells; assay type: cell-based; conditions: Homo sapiens, FIG. 31, read-out: In vitro cytotoxicity IC50
Description: Exponentially growing KB or J6456 cells were seeded in 24-well plates 24 h before treatment with drugs. […] Cells treated with vindesine, DAVLBH or doxorubicin alone were treated for 72 h. A total of five drug concentrations for each drug plus a drug-free control were evaluated. Cells were then treated with fresh medium containing ^3H-thymidine for 2 h at 37° C. Cells were further washed with PBS and treated with ice-cold 5% trichloroacetic acid. After 15 min, the trichloroacetic acid was aspirated and the cells solubilized by the addition of 0.25 N sodium hydroxide for 15 min at room temperature. Each solubilized sample was transferred to scintillation vials containing Ecolume scintillation cocktail and counted in a liquid scintillation counter. […]

[3] = tested on: M109 tumors; assay: In vivo antitumor experiments, s.c. M109 tumors; set-up: species or system Balb/c mice; conditions: five animals per group
Description: as §1, §2

[4] = tested on: IGR-OV1 cells; conditions: FIG. 53, EC145 with or without Lapatinib
[5] = tested on: OV90 cells; conditions: FIG. 53, EC145 with or without Lapatinib
[6] = tested on: RAW cells; assay: Cell growth inhibition, RAW cells; assay type: cell-based; conditions: FIG. 49
[7] = tested on: IGR-OV1 cells; assay: cells; conditions: Homo sapiens, IGROV-1
[8] = tested on: OV90 cells; assay: cells; conditions: Homo sapiens, OV-90
[9] = FIG. 14, M109 tumors 86-149 mm^3, EC145 alone 2 μmol/kg/injection TIW 2 weeks (1 μmol/kg in combination), Gemcitabine 40 mg/kg BIW 5 doses
[10] = FIG. 16, M109 tumors 99-164 mm^3, EC145 alone 2 μmol/kg/injection TIW 2 weeks (1 μmol/kg in combination), Tarceva 100 mg/kg qd5 2 weeks
[11] = FIG. 10, KB tumors 114-177 mm^3, five animals per group, EC145 1 μmol/kg/injection TIW 2 weeks, Irinotecan 40 mg/kg BIW 2 weeks
[12] = FIG. 12, KB tumors 108-222 mm^3, five animals per group, EC145 1 μmol/kg/injection TIW 2 weeks, Avastin 5 mg/kg BIW 2 weeks

N.N.O=C([O-])C1(C(=O)[O-])CCC1.[Pt+2] [Carboplatin, carboplatin]
partial responses ([1]; FIG. 1, KB tumors 109-188 mm^3, five animals per group, EC145 1 μmol/kg/injection TIW 2 weeks, Carboplatin 50 mg/kg TIW 1 week): 3

N.N.[Cl][Pt][Cl] [Cisplatin, cisplatin]
partial responses ([1]; mouse, in vivo): 2

CC[C@]1(O)C[C@@H]2CN(CCc3c([nH]c4ccccc34)[C@@](C(=O)OC)(c3cc4c(cc3OC)N(C)[C@H]3[C@@](O)(C(=O)NN)[C@H](O)[C@]5(CC)C=CCN6CC[C@]43[C@@H]65)C2)C1 [DAVLBH, desacetylvinblastine hydrazide]
effect of unconjugated DAVLBH on Doxil activity ([1]; FIG. 27, DAVLBH 0.75 μmol/kg/injection TIW 2 weeks + DOXIL 5 mg/kg BIW 2 weeks): antagonizes Doxil activity

COc1cccc2c1C(=O)c1c(O)c3c(c(O)c1C2=O)C[C@@](O)(C(=O)CO)C[C@@H]3O[C@H]1C[C@H](N)[C@H](O)[C@H](C)O1 [Doxorubicin, doxorubicin]
IC50 [2]: 0.034 µM

CC[C@]1(O)C[C@H]2CN(CCc3c([nH]c4ccccc34)[C@@](C(=O)OC)(c3cc4c(cc3OC)N(C)[C@H]3[C@@](O)(C(=O)NNC(=O)OCCSSC[C@H](NC(=O)[C@H](CC(=O)O)NC(=O)[C@H](CC(=O)O)NC(=O)[C@H](CCCNC(=N)N)NC(=O)[C@H](CC(=O)O)NC(=O)CC[C@H](NC(=O)c5ccc(NCc6cnc7nc(N)[nH]c(=O)c7n6)cc5)C(=O)O)C(=O)O)[C@H](O)[C@]5(CC)C=CCN6CC[C@]43[C@@H]65)C2)C1 [EC145]
complete responses ([1]; mouse, in vivo): 0
Cures [3, 9]: 2
complete responses [3, 9]: 0
partial responses [3, 9]: 0
Cures [3, 10]: 0
complete responses [3, 10]: 0
partial responses [3, 10]: 0
Cures ([3]; FIG. 40, M109 tumors, EC145 1 μmol/kg/injection TIW 2 weeks, DOXIL 4 mg/kg BIW 2 weeks): 3/5 and 3
IC50 [4]: 0.00358 µM
IC50 [5]: 0.329 µM

Nc1ccn([C@@H]2O[C@H](CO)[C@@H](O)C2(F)F)c(=O)n1 [Gemcitabine, gemcitabine]
Cures [3, 9]: no
complete responses [3, 9]: no
partial responses [3, 9]: no

CCc1c2c(nc3ccc(OC(=O)N4CCC(N5CCCCC5)CC4)cc13)-c1cc3c(c(=O)n1C2)COC(=O)[C@]3(O)CC [Irinotecan, irinotecan]
Cures [1, 11]: no
complete responses [1, 11]: no
partial responses [1, 11]: no

CS(=O)(=O)CCNCc1ccc(-c2ccc3ncnc(Nc4ccc(OCc5cccc(F)c5)c(Cl)c4)c3c2)o1 [Lapatinib, lapatinib]
IC50 [6]: 2.85 µM
IC50 [7]: 1.75 µM
IC50 [8]: 2.46 µM

C#Cc1cccc(Nc2ncnc3cc(OCCOC)c(OCCOC)cc23)c1 [Tarceva, erlotinib]
Cures [3, 10]: no
complete responses [3, 10]: no
partial responses [3, 10]: no

CC[C@@]1(O)C(=O)OCc2c1cc1n(c2=O)Cc2cc3c(CN(C)C)c(O)ccc3nc2-1 [Topotecan, topotecan]
Cures ([1]; FIG. 5, KB tumors 144-204 mm^3, five animals per group, EC145 1 μmol/kg/injection TIW 2 weeks, Topotecan 5 mg/kg TIW 2 weeks): no

CC[C@]1(O)C[C@@H]2CN(CCc3c([nH]c4ccccc34)[C@@](C(=O)OC)(c3cc4c(cc3OC)N(C)[C@H]3[C@@](O)(C(N)=O)[C@H](O)[C@]5(CC)C=CCN6CC[C@]43[C@@H]65)C2)C1 [vindesine]
effect of unconjugated vindesine on Doxil activity ([1]; FIG. 25/26, vindesine 1 mg/kg/injection TIW 2 weeks + DOXIL 5 mg/kg BIW 2 weeks): antagonizes Doxil activity

bevacizumab [Avastin]
Cures [1, 12]: no
complete responses [1, 12]: no
partial responses [1, 12]: no
